Tests used:
[1] = test system: MDA-MB-231 cells; assay: Oxidation of DCF (oxidant level) in cells; type: cell-based, human; conditions: 100 μM, 37° C., MDA-MB-231 as representative example
Experimental: DCF loaded cells were treated with IPA/NO-aspirin (blue), DEA/NO-aspirin (green), IPA/NO (magenta), DEA/NO (brown), aspirin (red) or DMSO (0.1%; black) at 37° C., and the fluorescence at 535 nm was measured in a time-dependent manner. Data are plotted as mean±SD (n=4).

[2] = test system: lung carcinoma cells; conditions: selective compared to normal endothelial cells, read-out: IC50 (proliferation); cited from earlier work
[3] = test system: caspase-3; assay: Caspase-3 activity in breast cancer cells; type: cell-based, human; conditions: MDA-MB-231, MDA-MB-468, MCF-7; 0-100 μM, 24 h, 37° C.
Experimental: The cells were treated with various concentrations (0, 25, 50, 100 μM) of IPA/NO-aspirin (blue) or DEA/NO-aspirin (green) for 24 h at 37° C. Caspase-3 activity was determined by recording the fluorescence ( ? 485 nm, ? 535 nm) of the product formed by cleavage of the substrate, N-Ac-DEVD-N′-MC-R11. Data are plotted as mean±SD (n=3).
Caspases are cysteine-aspartate proteases that can trigger apoptosis through a signaling cascade. Caspase-3 is an effector protease that has active cysteine residues that are susceptible to S-nitrosation. The impact of this modification has been variously reported to lead to reversible inhibition and to activation.

[4] = target: T1, GAPDH in MCF-10A cells (Homo sapiens, UniProt P04406); assay: GAPDH activity in cells; type: cell-based; conditions: 0-100 μM, 1 h, 37° C.
T1 construct: host or cells: MDA-MB-231; MCF-10A
T1 sequence (P04406 whole entry): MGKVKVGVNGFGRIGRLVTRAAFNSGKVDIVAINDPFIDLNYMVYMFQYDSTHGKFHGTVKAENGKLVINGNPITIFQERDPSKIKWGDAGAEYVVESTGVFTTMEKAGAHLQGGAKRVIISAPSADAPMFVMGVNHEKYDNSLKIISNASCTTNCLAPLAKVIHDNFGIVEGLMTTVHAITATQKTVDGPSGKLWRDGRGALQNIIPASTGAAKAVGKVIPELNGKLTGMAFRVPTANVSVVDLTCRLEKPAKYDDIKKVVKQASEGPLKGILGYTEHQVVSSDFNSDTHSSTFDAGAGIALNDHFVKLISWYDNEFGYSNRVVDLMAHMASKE
Experimental: (§1) The cells were treated with varied concentrations (0, 25, 50, 75, 100 μM) of IPA/NO-aspirin (blue) or DEA/NO-aspirin (green) for 1 h at 37° C. GAPDH activity was assessed by measuring fluorescence intensity at 570 nm. Data are plotted as mean±SD (n=3).
(§2) GAPDH is a critical glycolytic enzyme that can play an important role in cancer therapy as solid tumors often utilize glycolytic pathways even during normoxia to meet their energy requirements. Thus, inhibition of GAPDH can diminish ATP availability for tumor cells. GAPDH is also involved in initiation of apoptosis and in DNA repair.

[5] = target: T2, GAPDH in MDA-MB-231 cells (Homo sapiens, UniProt P04406); assay: GAPDH activity in cells; type: cell-based; conditions: MDA-MB-231, 0-100 μM, 1 h, 37° C.
T2 construct: host or cells: MDA-MB-231; MCF-10A
T2 sequence (P04406 whole entry): as above
Experimental: as §1, §2

[6] = test system: HUVECs; assay: Cytotoxicity toward HUVECs; type: cell-based, human; conditions: previously determined
[7] = test system: E-cadherin in MDA-MB-231 cells; assay: E-cadherin expression (RT-PCR, Western blot); type: cell-based, human; conditions: 100 μM, 3, 6 or 12 h; for E-cadherin mRNA expression: RT-PCR; for E-cadherin protein level: Western blot
Experimental: The cells were treated with vehicle (black) or 100 μM IPA/NO-aspirin (blue) or DEA/NO-aspirin (green) for 3, 6 or 12 h at 37° C. Relative mRNA expression was measured using RT-PCR techniques. E-cadherin mRNA were quantified with respect to control (1).
The cells were treated with vehicle (black) or 100 μM IPA/NO-aspirin (blue) or DEA/NO-aspirin (green) for 3, 6 or 12 h at 37° C. Protein expression was measured using Western blot techniques. E-cadherin protein levels were quantified with respect to control (100%).
Epithelial cadherin (E-cadherin) is calcium-dependent, membrane-associated cellular adhesion glycoprotein. Loss of E-cadherin-mediated cellular adhesion is a prerequisite for invasion and metastasis of tumor cells. NO is an endogenous mediator of endothelial cell migration. […] However, the effect of HNO on metastasis has not been studied. […] This can result in a reversal of tumor cells from an invasive, mesenchymal, to a benign, epithelial phenotype.

[8] = test system: MDA-MB-231 cells; assay: MTT cell viability; type: cell-based, human; conditions: read-out: concentration for 50% reduction of viability (IC50), MDA-MB-231, 48 h, mean ± SD for three trials
Experimental: (§3) Figures are representative of three trials with data plotted as mean percentage versus untreated cells±SD of the four replicates per plate). Vehicle (DMSO or 10 mM NaOH) was added as a control to otherwise untreated cells.
(§4) For examples utilizing cell culture methods, the following procedure was instituted. Human breast adenocarcinoma cells (MDA-MB-231, MCF-7 and MDA-MB-468; American Type Culture Collection, Manassas, Va.) were grown as monolayers in RPMI 1640 (Invitrogen, Carlsbad, Calif.) supplemented with 10% FBS (Hyclone, Thermo Fisher Scientific Inc., Waltham, Mass.), penicillin (50 units mL^−1) and streptomycin ([…]; Life Technologies, Inc., Grand Island, N.Y.). Non-tumorigenic, human breast epithelial cells (MCF-10A; American Type Culture Collection) and HUVECs (Cell Applications, Inc., San Diego, Calif.) were grown as monolayers in endothelial growth media (Lonza Inc., US-Allendale, N.J. or Cell Applications, Inc., San Diego, Calif.). Cells were seeded at a density of 1×10^6 cells per 100 cm^2 culture dish and were incubated at 37° C. in 5% CO2 at 80% relative humidity. Single-cell suspensions were obtained by trypsinization (0.05% trypsin/EDTA, Invitrogen, Carlsbad, Calif.). MDA-MB-231 cells stably transfected with green fluorescent protein (GFP) and G418 antibiotic resistance gene were a generous gift from Dr. Aldona Karaczyn from the Maine Medical Center Research Institute, Scarborough, Me. MDA-MB-231-GFP cells were grown as described for MDA-MB-231 cells with the addition of […] ([…]) to ensure vector presence.
(§5) In this example, the impact of IPA/NO-aspirin and DEA/NO-aspirin was assessed compared to aspirin or the parent diazeniumdiolate on proliferation of four human breast cell lines: MDA-MB-231 (ER(−) adenocarcinoma), MDA-MB-468 (ER(−) adenocarcinoma), MCF-7 (ER(+) adenocarcinoma) and MCF-10A (non-tumorigenic, immortalized human breast epithelial cells).

[9] = test system: MCF-10A cells; assay: MTT cell viability; type: cell-based, human; conditions: read-out: concentration for 50% reduction of viability (IC50), 48 h, did not reach a 50% reduction at 200 μM
Experimental: as §3, §4, §5

[10] = test system: MCF-7 cells; assay: MTT cell viability; type: cell-based, human; conditions: read-out: concentration for 50% reduction of viability (IC50), MCF-7, 48 h, mean ± SD for three trials
Experimental: as §3, §4, §5

[11] = test system: MDA-MB-468 cells; assay: MTT cell viability; type: cell-based, human; conditions: read-out: concentration for 50% reduction of viability (IC50), MDA-MB-468, 48 h, mean ± SD for three trials
Experimental: as §3, §4, §5

[12] = test system: MDA-MB-231 xenografts; assay: MDA-MB-231-GFP xenograft growth and brain metastasis in nude mice; type: in vivo; conditions: daily injection of equimolar doses for five weeks; for size of the primary tumor (GFP fluorescence intensity, tumor mass): vs control
Experimental: The cells were allowed to grow for 14 d, and the animals (40) were randomly divided into four groups (control, aspirin, IPA/NO-aspirin or DEA/NO-aspirin). Treated groups were injected daily with equimolar doses of DEA/NO-aspirin or IPA/NO-aspirin (16 mg kg^−1) or aspirin (9 mg kg^−1)) or with DMSO for the next five weeks.
For examples utilizing mouse tumor model methods, the following procedure was instituted. Analysis of tumor growth was carried out using protocols approved by the Committee on the Ethics of Animal Experiments of the National Cancer Institute (RBB-144) and adhered with the recommendations in the United States National Research Council's “Guide for the Care and Use of Laboratory Animals,” the United States Public Health Service's “Guide for the Care and Use of Laboratory Animals” and the “Policy on Humane Care and Use of Laboratory Animals”. The vivarium was maintained at 23° C. on a 12 h light/12 h dark cycle with ad libitum access to food and water. Nude mice (n=40) under general anesthesia were implanted with 7.5×10^5 MDA-MB-231 cells transfected with GFP by injection underneath the fourth left mammary gland. Prior to implantation, pedal withdrawal and eyelid reflexes were examined to ensure that mice were under stage III of anesthesia. At 14 days post-inoculation, the mice were randomly divided into four groups and treated by daily injection of equimolar doses (10 μL of 100 mM stock) of aspirin (9.00 mg kg^−1), IPA/NO-aspirin (15.8 mg kg^−1) or DEA/NO-aspirin (16.3 mg kg^−1) or with vehicle (DMSO). After five weeks, the tumor size was measured using in vivo fluorescent imaging for quantification of the GFP tag. In brief, mice were under general anesthesia throughout the whole body imaging process, and GFP signals were captured and quantified in an Xenogen IVIS 100 Imaging System according to the manufacturer's protocol. To assess metastasis in the brain, the animals were subsequently sacrificed following the approved method and guidelines.

SMILES: CCN(CC)[N+]([O-])=NOCOC(=O)c1ccccc1OC(C)=O [DEA/NO-aspirin, O2-(Acetylsalicyloyloxymethyl)-1-(N,N-Diethylamino)-diazen-1-ium-1,2-diolate]
- oxidation of DCF (fluorescence intensity) [1]: minimal impact
- IC50 [2]: 100 µM
- caspase-3 activity [3]: more modest in MDA-MB-231 and MCF7 cells
- GAPDH activity [4]: not inhibitory in either cell line
- GAPDH activity [5]: not inhibitory in either cell line
- cytotoxicity toward HUVECs [6]: neither IPA/NO-aspirin or DEA/NO-aspirin are appreciably cytotoxic
- E-cadherin mRNA expression [7]: did increase E-cadherin expression in a time-dependent manner
- E-cadherin protein level [7]: did increase E-cadherin expression in a time-dependent manner
- IC50 [8]: 102 ± 10 µM
- IC50 [9]: > 200 µM
- IC50 [10]: 122 ± 3 µM
- IC50 [11]: 90 ± 4 µM
- metastasis to the brain (GFP fluorescence) [12]: decreased metastasis compared to aspirin and untreated controls, the results were not statistically significant
- size of the primary tumor (GFP fluorescence intensity, tumor mass) [12]: substantial, although not statistically significant, reduction

SMILES: CC(=O)Oc1ccccc1C(=O)OCON=[N+]([O-])NC(C)C [IPA/NO-aspirin, O2-(Acetylsalicyloyloxymethyl)-1-(N-isopropylamino)-diazen-1-ium-1,2-diolate]
- oxidation of DCF (fluorescence intensity) [1]: significant increase in fluorescence intensity
- IC50 [2]: 100 µM
- caspase-3 activity [3]: activated caspase-3 in all three breast cancer lines
- GAPDH activity [4]: did not affect GAPDH activity
- GAPDH activity [5]: inhibited GAPDH activity in a concentration (FIG. 9A) and time-dependent-manner
- cytotoxicity toward HUVECs [6]: neither IPA/NO-aspirin or DEA/NO-aspirin are appreciably cytotoxic
- E-cadherin mRNA expression [7]: does not show any significant change
- E-cadherin protein level [7]: does not show any significant change
- IC50 [8]: 92 ± 1 µM
- IC50 [9]: > 200 µM
- IC50 [10]: 93 ± 2 µM
- IC50 [11]: 81 ± 2 µM
- metastasis to the brain (GFP fluorescence) [12]: decreased metastasis compared to aspirin and untreated controls, the results were not statistically significant
- size of the primary tumor (GFP fluorescence intensity, tumor mass) [12]: significant decrease
